Assay [1] deals with seminal vesicles. Nature of the assay: Model 4: Antiandrogenic action on testosterone-stimulated growth of accessory sexual glands of castrated mice. Type of assay: in vivo. The settings on record: testosterone propionate 0.03 mg/mouse, test substance 2 × 30 mg/kg s.c., 7 days, CPA 30 mg/kg s.c., bicalutamide from preceding tests. The method, then: The function and the size of accessory sexual glands (prostate and seminal vesicles) depend on androgens. In castrated animals, a growth of these (organs is induced by androgen administration. The simultaneous treatment with antiandrogens inhibits this growth, depending on the dose.
To examine the test substances, the mice were castrated. The treatment with testosterone propionate (0.03 mg/mouse) and the test substances (formulated 2×daily 30 mg/kg s.c. in benzyl benzoate-castor oil (10:90)) was on the same day. The treatment was carried out over 7 days and at the end of the test, the weights of the seminal vesicles and prostates were determined. The inhibition, in percent, of the seminal vesicle growth was calculated relative to the control groups (with and without testosterone). As a reference substance, cyproterone acetate (30 mg/kg s.c.) was used.

Assay [2] concerns A431 cells. Briefly: Model 3: Proliferation of non-prostate cells, A431. Type of assay: cell-based, human. The settings on record: 10 μM, 3-day treatment, percent of cell growth of solvent control. The method, then: (§1) To examine the growth-inhibiting action of test substances in cells that are not of prostatic origin, MaTu cells, MaTu/Adr cells, HaCaT cells and A431 cells were treated with test substances, whereby
(§2) Depending on the cell line, 1000-4000 cells/well were grown in RPMI 1640 medium (A431; MaTu and MaTu/Adr) or DMEM/HAM'SF12 medium (HaCaT) without phenol red with 2 mmol of L-glutamine and 10% CCS, and after a 24-hour incubation, they were treated with various concentrations of test substances diluted in culture medium. After a 3-day treatment period, the number of cells was determined by crystal violet assay, as in Model 2. The solvent control contained 0.1% ethanol.
(§3) The substances were tested at a concentration of 10 μM, and the data correspond to the proportion, in percent, of the cell growth of the solvent control. It turns out that the test substances exerted no inhibitory action on the four different cell lines or, in individual cases, only a slight inhibitory action.

The subject of assay [3] is CWR22 prostate cancers. Briefly: Model 5: Growth of human prostate cancer xenografts in vivo, CWR22. The note with it: hairless mice with testosterone pellets, 2 × daily s.c. 30 mg/kg, FIG. 2. The source says:
(§4) In this invention, the action of Example 117 according to the invention: 4-[2,5-dihydro-3-methyl-4-[4-[4-(methylsulfonyl)piperazin-1-yl]butyl]-2,5-dioxo-1H-pyrrol-1-yl]-2-(trifluoromethyl)benzonitrile on the tumor growth in vivo was studied by means of mouse-xenograft modules, in which the compound according to the invention was continuously administered subcutaneously.
(§5) The CWR22 tumor model [M. A. Wainstein, F. He, D. Robinson, H. J. Kung, S. Schwartz, J. M. Giaconia, N. L. Edgehouse, T. P. Pretlow, D. R. Bodner, E. D. Kursh, Cancer Res. 1994, 1; 54(23), 6049-52] is a hormone-dependent human prostate carcinoma model. The tumor model was established and further propagated by “scrial passaging” of prostate cancer tissue, which was removed during an OP in immunodeficient hairless mice. The androgen-dependent LNCaP prostate cancer model was also established from a patient tumor. This tumor model grows both in cell culture and as a xenotransplant on immunodeficient mice (Culig, Hoffman Brit. J. Cancer, 1999, 242-251). For therapy tests, 6-week-old male hairless mice (NMRI mice, M&B, Bornholdtgard, Denmark) were supplemented with testosterone pellets (12.5 mg, 90-day release; IRA, Sarasota, Fla.). Either LNCaP cells (1.5×10^6 cells) or small CWR22 tumor fragments (2×2 mm) were implanted subcutaneously in the left flank of the animals. After the tumors reached a size of 20-25 mm^2, the treatment with the invention substance was begun. [M. A. Wainstein, F. He, D. Robinson, H. J. Kung, S. Schwartz, J. M. Giaconia, N. L. Edgehouse, T. P. Pretlow, D. R. Bodner, E. D. Kursch, Cancer Res. 1994, 1; 54(23), 6049-52].
Background: A xenograft is tissue or cells of one species grown in another, often human tumour cells in immunodeficient mice.

The subject of assay [4] is MaTu/Adr cells. Briefly: Model 3: Proliferation of non-prostate cells, MaTu/Adr. The class given is cell-based, human. The note with it: 10 μM, 3-day treatment, percent of cell growth of solvent control. The protocol:
as §1, §2, §3

Assay [5] has as its system LNCaP cells. Briefly: Model 2: Inhibition of the proliferation of LNCaP cells (crystal violet assay; antagonism with 0.1 nM R1881, agonism without). The class given is cell-based, human. The note with it: for IC50: LNCaP proliferation in the presence of 0.1 nM R1881, 7-8 days, read-out: IC50 [10^−7 M].
Assay [6] relates to HaCaT cells. Briefly: Model 3: Proliferation of non-prostate cells, HaCaT. Type of assay: cell-based, human. The note with it: 10 μM, 3-day treatment, percent of cell growth of solvent control. The protocol:
as §1, §2, §3

For assay [7], the system named is LNCaP prostate cancers. Nature of the assay: Model 5: Growth of human prostate cancer xenografts in vivo, LNCaP. The note with it: hairless mice with testosterone pellets, 2 × daily s.c. 30 mg/kg, FIG. 1.
Excerpt: as §4, §5

In assay [8] the test system is MaTu cells. Briefly: Model 3: Proliferation of non-prostate cells, MaTu. The class given is cell-based, human. The settings on record: 10 μM, 3-day treatment; percent of cell growth of solvent control. The method, then:
as §1, §2, §3

In assay [9] the target is T1, androgen receptor (Homo sapiens, UniProt P10275, T878A).
T1 construct: 2*10^6 LNCaP cells in 6 ml of RPMI 1640 without phenol red are grown; endogenous in cells; host or cells: LNCaP (human prostate cell line)
T1 sequence (P10275 1-920 T878A): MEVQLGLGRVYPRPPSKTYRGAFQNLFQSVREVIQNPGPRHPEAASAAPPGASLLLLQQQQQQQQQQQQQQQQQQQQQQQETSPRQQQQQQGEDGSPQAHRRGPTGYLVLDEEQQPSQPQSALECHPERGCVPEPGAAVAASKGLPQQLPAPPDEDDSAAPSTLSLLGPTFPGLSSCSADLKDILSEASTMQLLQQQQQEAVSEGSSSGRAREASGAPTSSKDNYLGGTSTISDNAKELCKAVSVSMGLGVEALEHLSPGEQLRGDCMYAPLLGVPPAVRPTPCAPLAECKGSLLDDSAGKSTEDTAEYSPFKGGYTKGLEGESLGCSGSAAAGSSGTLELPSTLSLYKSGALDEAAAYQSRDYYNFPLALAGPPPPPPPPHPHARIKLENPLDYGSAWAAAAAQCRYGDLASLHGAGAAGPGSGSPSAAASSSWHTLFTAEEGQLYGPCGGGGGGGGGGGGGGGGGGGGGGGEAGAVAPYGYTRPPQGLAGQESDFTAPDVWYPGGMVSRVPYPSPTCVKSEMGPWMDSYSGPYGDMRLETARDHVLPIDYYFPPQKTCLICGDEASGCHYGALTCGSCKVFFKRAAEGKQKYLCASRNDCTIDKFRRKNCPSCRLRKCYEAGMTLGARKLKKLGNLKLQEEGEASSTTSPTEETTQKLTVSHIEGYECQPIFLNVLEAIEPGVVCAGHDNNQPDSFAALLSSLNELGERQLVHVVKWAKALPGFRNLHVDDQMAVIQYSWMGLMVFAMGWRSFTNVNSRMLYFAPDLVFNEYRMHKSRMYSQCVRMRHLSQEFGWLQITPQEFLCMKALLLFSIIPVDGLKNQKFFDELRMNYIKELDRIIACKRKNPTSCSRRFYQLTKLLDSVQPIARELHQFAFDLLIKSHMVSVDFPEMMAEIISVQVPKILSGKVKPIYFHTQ
Briefly: cell-based. The settings on record: LNCaP, 48 h; for remaining activity at 10 µM: read-out: AR Content [%] At 10 μM; for remaining activity at 1 µM: read-out: AR Content [%] At 1 μM.

Where [10] appears, read: listed as invention substance, 30 mg/kg.
[11] abbreviates: listed as substance B, 30 mg/kg.

Usually inhibition stands for the percentage by which the read-out fell short of the control. For orientation: IC50 means the concentration that gives 50% inhibition. As a reminder, the % Inhibition is the drop in the measured response relative to a control, in per cent.

As to `CC(O)(CS(=O)(=O)c1ccc(F)cc1)C(=O)Nc1ccc(C#N)c(C(F)(F)F)c1` (stereo not shown) [Bicalutamide, N-[4-cyano-3-(trifluoromethyl)phenyl]-3-[(4-fluorophenyl)sulfonyl]-2-hydroxy-2-methylpropanamide, reference compound], in assay [1], the “% Inhibition of the MSB Growth” value turned out to be 86%. The results for the “Proliferation in the Cell Line A431” value in assay [2] and in assay [2] (listed as bicalutamide) were 89 ± 7% and “slight inhibition”, respectively. In addition, the “growth inhibition of CWR22 prostate cancers” value in [3] was “growth inhibition”. Also, the “Proliferation in the Cell Line MaTu/Adr” value in assay [4] is on record as 84 ± 6%; in [4] (listed as bicalutamide), “slight inhibition”. For the same molecule, in assay [5] (Homo sapiens, LNCaP, LNCaP proliferation, 1 μM substance, compared to cell growth in the presence of 0.1 nM R1881), the inhibition at 1 µM was determined as 85%. The IC50 in [5] (Homo sapiens) was found to be 0.38 µM. Moreover, the “% Inhibition at 1 μM” value in assay [5] (LNCaP proliferation, 1 μM substance, compared to cell growth in the presence of 0.1 nM R1881) was 84.6%. Further, the “Proliferation in the Cell Line HaCaT” value in assay [6] is on record as 92 ± 3%; in assay [6] (listed as bicalutamide) it was “slight inhibition”. Also, in [7], the “growth inhibition of LNCaP prostate cancers” value is listed as “growth inhibition”. Further, the “Proliferation in the Cell Line MaTu” value in [8] came out at 97 ± 3%.
Regarding `CC1=C(CCCCN2CCN(C(=O)c3ccccc3Cl)CC2)C(=O)N(c2ccc(C#N)c(C(F)(F)F)c2)C1=O` [Example 90, 4-[3-[4-[4-(2-Chlorobenzoyl)piperazin-1-yl]butyl]-2,5-dihydro-4-methyl-2,5-dioxo-1H-pyrrol-1-yl]-2-(trifluoromethyl)benzonitrile], the “Proliferation in the Cell Line A431” value in [2] is 98 +/− 7%. In addition, the “Proliferation in the Cell Line MaTu/Adr” value in assay [4] was 80 +/− 2%. Also, in [9], the remaining activity at 10 µM was 34%. Further, in [6], the “Proliferation in the Cell Line HaCaT” value is reported as 102 +/− 12%. Moreover, the “Proliferation in the Cell Line MaTu” value in [8] is reported as 96 +/− 3%.
Consider `CC1=C(CCCCN2CCN(S(C)(=O)=O)CC2)C(=O)N(c2ccc(C#N)c(C(F)(F)F)c2)C1=O` [Example 117, 4-[2,5-Dihydro-3-methyl-4-[4-[4-(methylsulfonyl)piperazin-1-yl]butyl]-2,5-dioxo-1H-pyrrol-1-yl]-2-(trifluoromethyl)benzonitrile], for which, in assay [2], the “Proliferation in the Cell Line A431” value was determined as 100 ± 5%. In addition, the “growth inhibition of CWR22 prostate cancers” value in [3] (setting [10]) is “considerable growth inhibition”; in assay [3] (setting [11]), “superior in comparison to treatment with the antiandrogen bicalutamide”. The “Proliferation in the Cell Line MaTu/Adr” value in [4] worked out at 94 ± 4%. The remaining activity at 1 µM in assay [9] amounted to 57%. Also, in assay [9], the remaining activity at 10 µM is 36%. In addition, the “Proliferation in the Cell Line HaCaT” value in assay [6] was 104 ± 6%. For the same molecule, the entries for the “growth inhibition of LNCaP prostate cancers” value in assay [7] (setting [10]) and in assay [7] (setting [11]) were “considerable growth inhibition” and “superior in comparison to treatment with the antiandrogen bicalutamide”, respectively. Besides, in assay [8], the “Proliferation in the Cell Line MaTu” value is on record as 103 ± 10%.
Regarding `COc1ccccc1C(=O)N1CCN(CCCCCCC2=C(C)C(=O)N(c3ccc(C#N)c(C(F)(F)F)c3)C2=O)CC1` [Example 248, 4-[2,5-Dihydro-3-[6-[4-(2-methoxybenzoyl)piperazin-1-yl]hexyl]-4-methyl-2,5-dioxo-1H-pyrrol-1-yl]-2-(trifluoromethyl)benzonitrile], the “Proliferation in the Cell Line A431” value in [2] is on record as 102 +/− 5%. In [4], the “Proliferation in the Cell Line MaTu/Adr” value is 88 +/− 4%. Further, the IC50 in assay [5] (Homo sapiens) worked out at 0.25 µM. Also, in [9], the remaining activity at 1 µM came to 51% and the remaining activity at 10 µM was 22%. The “Proliferation in the Cell Line HaCaT” value in [6] was 104 +/− 7%. In assay [8], the “Proliferation in the Cell Line MaTu” value is reported as 98 +/− 4%.
With `CC1=C(CCCCCCN2CCN(C(=O)Nc3ccccc3)CC2)C(=O)N(c2ccc(C#N)c(C(F)(F)F)c2)C1=O` [Example 315, 4-[6-[1-[4-Cyano-3-(trifluoromethyl)phenyl]-2,5-dihydro-4-methyl-2,5-dioxo-1H-pyrrol-3-yl]hexyl]-N-phenylpiperazine-1-carboxamide], the “Proliferation in the Cell Line A431” value in assay [2] is given as 95 +/− 5%. The “Proliferation in the Cell Line MaTu/Adr” value in [4] was 90 +/− 10%. Besides, the concentration for half-maximal inhibition (IC50) in assay [5] (Homo sapiens) was 0.38 µM. Moreover, in assay [9], the remaining activity at 10 µM came to 52%. Further, in assay [6], the “Proliferation in the Cell Line HaCaT” value is 102 +/− 6%. In assay [8], the “Proliferation in the Cell Line MaTu” value is reported as 95 +/− 7%.
Consider `CCS(=O)(=O)N1CCN(CCCCCN2C(=S)N(c3ccc(C#N)c(C(F)(F)F)c3)C(=O)C2(C)C)CC1` [Example 629, 4-[3-[5-[4-(Ethylsulfonyl)piperazin-1-yl]pentyl]-4,4-dimethyl-5-oxo-2-thioxoimidazolidin-1-yl]-2-(trifluoromethyl)benzonitrile], for which the “% Inhibition of the MSB Growth” value in assay [1] was found to be 98%. Moreover, the IC50 in assay [5] (Homo sapiens) was found to be 0.14 µM. The remaining activity at 1 µM in assay [9] was found to be 54%.
As for `CSC(=O)N1CCN(CCCCCCN2C(=S)N(c3ccc(C#N)c(C(F)(F)F)c3)C(=O)C2(C)C)CC1` [Example 696, S-Methyl 4-[6-[3-[4-cyano-3-(trifluoromethyl)phenyl]-5,5-dimethyl-4-oxo-2-thioxoimidazolidin-1-yl]hexyl]piperazine-1-carbothioate], the “% Inhibition of the MSB Growth” value in assay [1] turned out to be 87%. In addition, the remaining activity at 1 µM in [9] came to 60%.

For the origin of these results see patent US6861432B2, “Piperazine derivatives that destabilize androgen receptors” (Schering Aktiengesellschaft, priority 2001, dated 2005).
